Literature values as cited in patent US20090036693A1, “METHOD OF PURIFYING UBIQUINONE-10” (Kyowa Hakko Kogyo Co., Ltd., priority 2005, published 2009).

Conditions: solvent methanol; background statement

solubility in methanol: ≤ 5000 µg/mL
Structure (SMILES): COC1=C(OC)C(=O)C(C/C=C(\C)CC/C=C(\C)CC/C=C(\C)CC/C=C(\C)CC/C=C(\C)CC/C=C(\C)CC/C=C(\C)CC/C=C(\C)CC/C=C(\C)CCC=C(C)C)=C(C)C1=O [ubiquinone-10]
